Results published in article PMC9854762, “Antibiofilm and Anti-Quorum-Sensing Activities of Novel Pyrazole and Pyrazolo[1,5-a]pyrimidine Derivatives as Carbonic Anhydrase I and II Inhibitors: Design, Synthesis, Radiosterilization, and Molecular Docking Studies” (Antibiotics, 2023).
Converted amounts (≈) assume the structure as drawn. Like-named read-outs stand apart in the source and are kept apart here.

Columns and labels:
A. baumannii DH-243 [1] = assay: Agar well-diffusion assay; type: cell-based; settings: Acinetobacter baumannii
Protocol: (§1) The synthesized compounds were initially screened for their in vitro antibacterial activity against the different Gram-positive and Gram-negative bacteria, tested using the agar well-diffusion assay. The turbidity of the bacterial suspensions was established to the 0.5 McFarland turbidity standard. The activity was performed on TS agar plates. The bacteria were spread on the surface of the agar plates, and 10 mm wells were screwed into the agar plates. The assay was performed under aseptic conditions. An aliquot of 50 µL of each tested compound (10 mM) was added to the wells, and the plates were incubated overnight at 37 °C. Both Erythromycin and Amikacin antibiotic disks were used as positive control, while DMSO solvent was used as a negative control in this study. The diameters of inhibition zones were measured and recorded in mm. A comparative study of the synthesized compounds was determined. The experiment was performed in triplicates.

E. coli DH-5987 [2] = assay: Agar well-diffusion assay; type: cell-based; settings: Escherichia coli, DH5987, 50 µL of 10 mM per well, read-out: Diameter of Inhibition Zones (AZOI)
Protocol: as §1

P. aeruginosa DH-5698 [3] = assay: Agar well-diffusion assay; type: cell-based, Pseudomonus aeruginosa; settings: Pseudomonas aeruginosa
Protocol: as §1

A. baumannii DH-243 [4] = assay: Broth microdilution MIC/MBC; type: cell-based, Acinetobacter baumannii; settings: for MIC: Acinetobacter baumannii, DH243, 24 h, read-out: MIC (Mean ± SEM); for MBC/MIC: value in brackets
Protocol: (§2) The broth microdilution method was taken as a basis to detect the MICs of pyrazole compounds against tested clinical isolates, according to the Clinical Laboratory and Standards Institute guidelines. The broth cultures were used to prepare the bacterial inoculums, and the suspensions were adjusted to the standard 0.5 McFarland turbidity. Stock solutions of the synthesized pyrazoles were prepared in pure DMSO and further serially diluted with TS broth in the concentration range from 128 µg/mL to 0.0625 µg/mL. A well containing noninoculated TS broth, free of any antimicrobial agents, was also included to ensure the medium sterility, while Erythromycin and Amikacin served as positive controls. Bacterial growth was determined by adding 20 µL of 0.5% TTC (2,3,5-triphenyltetrazolium chloride) aqueous solution. […] All experiments were repeated three times. The bactericidal effect from each concentration of the pyrazole and pyrazolo[1,5-a]pyrimidine derivatives showing growth inhibition was further studied. For this study, a loopful of 5 µL was taken from each no-visible growth tube and streaked onto plates of TS agar.

E. coli DH-5987 [5] = assay: Broth microdilution MIC/MBC; type: cell-based, Escherichia coli; settings: for MBC/MIC: value in brackets; for MIC: read-out: MIC (Mean ± SEM)
Protocol: as §2

P. aeruginosa DH-5698 [6] = assay: Broth microdilution MIC/MBC; type: cell-based, Pseudomonus aeruginosa; settings: for MIC: Pseudomonas aeruginosa, DH5698, 24 h, read-out: MIC (Mean ± SEM); for MBC/MIC: value in brackets
Protocol: as §2

E. faecalis DH-5478 [7] = assay: Agar well-diffusion assay; type: cell-based; settings: Enterococcus faecalis, DH5478; E. faecalis DH-5478; 50 µL of 10 mM per well; read-out: Diameter of Inhibition Zones (AZOI)
Protocol: as §1

S. aureus DH-432 [8] = assay: Agar well-diffusion assay; type: cell-based; settings: Staphylococcus aureus, DH432; S. aureus DH-432; 50 µL of 10 mM per well; read-out: Diameter of Inhibition Zones (AZOI)
Protocol: as §1

S. pyogenes DH-3467 [9] = assay: Agar well-diffusion assay; type: cell-based; settings: Streptococcus pyogenes, DH3467; S. pyogenes DH-3467; 50 µL of 10 mM per well; read-out: Diameter of Inhibition Zones (AZOI)
Protocol: as §1

E. faecalis DH-5478 [10] = assay: Broth microdilution MIC/MBC; type: cell-based, Enterococcus faecalis; settings: for MIC: Enterococcus faecalis, DH5478, 24 h, read-out: MIC (Mean ± SEM); for MBC/MIC: value in brackets
Protocol: as §2

S. aureus DH-432 [11] = assay: Broth microdilution MIC/MBC; type: cell-based, Staphylococcus aureus; settings: for MIC: Staphylococcus aureus, DH432, 24 h, read-out: MIC (Mean ± SEM); for MBC/MIC: value in brackets
Protocol: as §2

S. pyogenes DH-3467 [12] = assay: Broth microdilution MIC/MBC; type: cell-based, Streptococcus pyogenes; settings: for MIC: Streptococcus pyogenes, DH3467, 24 h, read-out: MIC (Mean ± SEM); for MBC/MIC: value in brackets
Protocol: as §2

[13] = Escherichia coli, DH5987, E. coli DH-5987, 24 h
[14] = DH243, A. baumannii DH-243, 50 µL of 10 mM per well, read-out: Diameter of Inhibition Zones (AZOI)
[15] = DH5698, P. aeruginosa DH-5698, 50 µL of 10 mM per well, read-out: Diameter of Inhibition Zones (AZOI)

| Structure (SMILES) | zone of inhibition at 10000 µM (E. coli DH-5987 [2]) [mm] | MIC (A. baumannii DH-243 [4]) [µg/mL] | MBC/MIC (A. baumannii DH-243 [4]) | MBC/MIC (E. coli DH-5987 [5]; E. coli DH-5987) | MIC (E. coli DH-5987 [5]; [13]) [µg/mL] | MIC (P. aeruginosa DH-5698 [6]) [µg/mL] | MBC/MIC (P. aeruginosa DH-5698 [6]) | zone of inhibition at 10000 µM (A. baumannii DH-243 [1]; [14]) [mm] | zone of inhibition at 10000 µM (E. faecalis DH-5478 [7]) [mm] | zone of inhibition at 10000 µM (S. aureus DH-432 [8]) [mm] | zone of inhibition at 10000 µM (S. pyogenes DH-3467 [9]) [mm] | zone of inhibition at 10000 µM (P. aeruginosa DH-5698 [3]; [15]) [mm] | MIC (E. faecalis DH-5478 [10]) [µg/mL] | MBC/MIC (E. faecalis DH-5478 [10]) | MIC (S. aureus DH-432 [11]) [µg/mL] | MBC/MIC (S. aureus DH-432 [11]) | MIC (S. pyogenes DH-3467 [12]) [µg/mL] | MBC/MIC (S. pyogenes DH-3467 [12]) | melting point [°C] | other results |
| --- | --- | --- | --- | --- | --- | --- | --- | --- | --- | --- | --- | --- | --- | --- | --- | --- | --- | --- | --- | --- |
| NCC[C@H](O)C(=O)N[C@@H]1C[C@H](N)[C@@H](O[C@H]2O[C@H](CN)[C@@H](O)[C@H](O)[C@H]2O)[C@H](O)[C@H]1O[C@H]1O[C@H](CO)[C@@H](O)[C@H](N)[C@H]1O [AK, Amikacin, reference compound] | 11 | 128 ± 0.2 (≈ 219 µM) | 4 | 4 | 32 (≈ 54.6 µM) | 128 ± 0.1 (≈ 219 µM) | 4 |  |  |  |  |  |  |  |  |  |  |  |  | zone of inhibition at 10000 µM (A. baumannii DH-243 [1]; DH243, read-out: Diameter of Inhibition Zones (AZOI)): 13 mm; zone of inhibition at 10000 µM (P. aeruginosa DH-5698 [3]; DH5698, read-out: Diameter of Inhibition Zones (AZOI)): 14 mm; MIC (Mean ± SEM) (E. coli DH-5987 [5]; E. coli DH-5987, 24 h): 32 ± 0.2 µg/mL (≈ 54.6 µM); MBC (E. coli DH-5987 [5]; Escherichia coli, DH5987, E. coli): 128 µg/mL (≈ 219 µM) |
| CCOC(=O)c1ccc(N=Nc2c(N)nn(-c3ccccc3)c2N)cc1 [Compound 3b, Ethyl 4-((3,5-diamino-1-phenyl-1H-pyrazol-4-yl)diazenyl)benzoate] | 26.9 | 1 ± 0.3 (≈ 2.85 µM) | 0.5 | 1 | 0.5 ± 0.2 (≈ 1.43 µM) | 1 ± 0.2 (≈ 2.85 µM) | 0.5 | 23.1 | 24.4 | 25.2 | 24.7 | 25.1 | 0.75 ± 0.2 (≈ 2.14 µM) | 0.5 | 0.5 ± 0.1 (≈ 1.43 µM) | 1 | 0.75 ± 0.4 (≈ 2.14 µM) | 1 | 144 to 146 |  |
| CCOC(=O)c1ccc(N=Nc2c(N)nn(C(N)=S)c2N)cc1 [Compound 3c, Ethyl 4-((3,5-diamino-1-carbamothioyl-1H-pyrazol-4-yl)diazenyl)benzoate] | 24.7 | 2 ± 0.2 (≈ 6 µM) | 1 | 0.5 | 0.75 ± 0.5 (≈ 2.25 µM) | 1 ± 0.3 (≈ 3 µM) | 1 | 22.5 | 21.3 | 23.8 | 22.6 | 23.2 | 1 ± 0.3 (≈ 3 µM) | 1 | 0.75 ± 0.2 (≈ 2.25 µM) | 1 | 0.75 ± 0.2 (≈ 2.25 µM) | 0.5 | 280 to 282 |  |
| CCOC(=O)c1ccc(N=Nc2c(N)nn(C(O)=CC#N)c2N)cc1 [Compound 4, Ethyl 4-((3,5-diamino-1-(2-cyano-1-hydroxyvinyl)-1H-pyrazol-4-yl)diazenyl)benzoate] | 22.4 | 2 ± 0.4 (≈ 5.86 µM) | 0.5 | 1 | 0.75 ± 0.3 (≈ 2.2 µM) | 1.5 ± 0.2 (≈ 4.39 µM) | 1 | 21.3 | 22.1 | 24.7 | 23.4 | 20.5 | 2 ± 0.3 (≈ 5.86 µM) | 0.5 | 1 ± 0.4 (≈ 2.93 µM) | 0.5 | 1.5 ± 0.3 (≈ 4.39 µM) | 0.5 | 290 to 292 |  |
